From US10807976B2, “Quinolinone five-membered heterocyclic compounds as mutant-isocitrate dehydrogenase inhibitors” (FORMA Therapeutics, Inc., priority 2015, dated 2020)

Target: IDH1-R132H recombinant protein (Homo sapiens, UniProt O75874, R132H)
Experiment: IDH1-R132H enzymatic assay (diaphorase/resazurin, NADPH consumption)
Type: biochemical
Conditions: 30 nM IDH1-R132H, inhibition of NADPH consumption; read-out: Enzyme IDH1 R132H IC50
Protocol: Example 26—IDH1-R132H and IDH1-R132C Enzymatic Assay
Assays were performed in a 384-well black plate. An aliquot of 250 nL of compound was incubated with 10 μL of 30 nM IDH1-R132H or 10 nM IDH1-R132C recombinant protein in assay buffer (50 mM Tris pH=7.5, 150 mM NaCl, 5 mM MgCl2, 0.1% (w/v) Bovine Serum Albumin, and 0.01% Triton X-100) in each well at 25° C. for 15 minutes. After the plate was centrifuged briefly, an aliquot of 10 μL of 2 mM α-ketoglutarate and 20 μM NADPH solution prepared in assay buffer was then added to each well and the reaction was maintained at 25° C. for 45 minutes. An aliquot of 10 μL of diaphorase solution (0.15 U/mL diaphorase and 30 μM Resazurin in assay buffer) was added to each well. The plate was maintained at 25° C. for 15 minutes and then read on a plate reader with excitation and emission wavelengths at 535 nm and 590 nm, respectively. The IC50 of a given compound was calculated by fitting the dose response curve of inhibition of NADPH consumption at a given concentration with the four parameter logistic equation.

Sequence of IDH1-R132H recombinant protein (O75874 whole entry R132H): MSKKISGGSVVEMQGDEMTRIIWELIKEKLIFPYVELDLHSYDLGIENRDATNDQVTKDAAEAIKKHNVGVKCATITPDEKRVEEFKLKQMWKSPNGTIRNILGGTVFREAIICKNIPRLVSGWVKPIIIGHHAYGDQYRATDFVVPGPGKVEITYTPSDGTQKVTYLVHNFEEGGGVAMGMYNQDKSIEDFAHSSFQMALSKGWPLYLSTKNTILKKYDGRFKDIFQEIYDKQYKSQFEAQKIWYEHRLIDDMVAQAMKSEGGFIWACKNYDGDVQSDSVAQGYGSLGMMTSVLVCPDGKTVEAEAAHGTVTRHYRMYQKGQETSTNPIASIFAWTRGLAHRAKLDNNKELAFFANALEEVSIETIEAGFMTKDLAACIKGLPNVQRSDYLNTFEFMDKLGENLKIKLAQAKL

Q: With “6-chloro-3-[(1S)-1-{[5-(2-oxo-1,3-oxazolidin-3-yl)-1,2,4-thiadiazol-3-yl]amino}ethyl]-1,2-dihydroquinolin-2-one [Compound I-12]” as the substance, how does the IC50 read?
A: > 10 µM
